Activity calls are given as the source filed them. No cut-off for these calls is given here.

Series [1] has as its system Plasmodium falciparum. The series can be described thus: Induction of mitochondrial membrane depolarization in trophozoite stage Plasmodium falciparum 3D7 infected in human RBC assessed as decrease in red to green fluorescence ratio at IC50 concentration incubated for 3 hrs by JC-1 dye based fluorescence microscopic analysis. Type of series: functional, organism-based.

A short description of series [2]: Binding affinity to recombinant N-terminal 6His tagged Plasmodium falciparum alpha-1 tubulin expressed in Escherichia coli BL21 assessed as dissociation constant by SPR analysis. A general note: Surface plasmon resonance follows binding to a sensor surface in real time, without labels.
Series [3] deals with Plasmodium falciparum. The series can be described thus: Binding affinity to recombinant N-terminal 6His tagged Plasmodium falciparum beta-tubulin expressed in Escherichia coli BL21 at 0.78 to 75 uM by SPR analysis. To be noted: dose 0.78-75 µM.
Series [4] deals with Plasmodium berghei. The series is described as follows: Antimalarial activity against Plasmodium berghei ANKA in BALB/c mouse injected with parasite infected erythrocytes assessed as reduction in parasitemia at 30 mg/kg, ip administered daily for 7 days and measured after 15 days. In kind it is functional, organism-based. To be noted: time 15.0 day.
In series [5] the test system is Plasmodium falciparum. The series can be described thus: Antimalarial activity against […] infected in human RBC assessed as inhibition of plasmodial growth at 1 uM by SYBR green dye based spectrofluorometric analysis relative to control. As to conditions: 3D7, Erythrocyte. In kind it is functional.
Series [6] has as its system Plasmodium falciparum. The series can be described thus: Induction of mitochondrial membrane depolarization in trophozoite stage Plasmodium falciparum 3D7 infected in human RBC assessed as red to green fluorescence ratio at IC50 concentration incubated for 3 hrs by JC-1 dye based spectrofluorometric analysis (reference value: 6.96+/-0.94). In kind it is functional.
For series [7], the system named is Plasmodium falciparum. The series is described as follows: Induction of mitochondrial membrane depolarization in trophozoite stage Plasmodium falciparum 3D7 infected in human RBC assessed as increase in green fluorescence at IC50 concentration incubated for 3 hrs by JC-1 dye based fluorescence microscopic analysis. In kind it is functional, organism-based.
Series [8] can be described thus: Cytotoxicity against […] cell upto 500 uM. As to conditions: human. In kind it is toxicity, cell-based.
The subject of series [9] is Plasmodium falciparum. The series can be described thus: Antiplasmodial activity against synchronized ring stage Plasmodium falciparum 3D7 infected in human RBC assessed as defect in invasion stage by measuring merozoites sticking on the red blood cell surface at IC50 concentration measured after 60 hrs by giemsa staining based light microscopic analysis. Type of series: functional, organism-based.

The nature of series [10]: Therapeutic index, ratio of CC50 for human HepG2 cells to IC50 for chloroquine-sensitive synchronized late stage trophozoite Plasmodium falciparum 3D7 infected in human RBC. Type of series: toxicity. As to conditions: read-out: TI.
Series [11] has as its system Plasmodium berghei. The series is described as follows: Antimalarial activity against Plasmodium berghei ANKA in BALB/c mouse injected with parasite infected erythrocytes assessed as […] mean survival time at 30 mg/kg, ip administered daily for 7 days and measured after 15 days. Type of series: functional. As to conditions: time 15 day.
The next series concerns Erythrocyte. The series is described as follows: Hemolytic activity in human RBC assessed as hemolysis upto 5 uM incubated for 2 hrs. In kind it is toxicity, cell-based.
The subject of series [12] is Plasmodium berghei. The series can be described thus: Antimalarial activity against Plasmodium berghei ANKA in BALB/c mouse injected with parasite infected erythrocytes assessed as decrease in parasite load at 30 mg/kg, ip administered daily for 7 days relative to control. In kind it is functional. Also noted: scale not given: the % may be the effect or the level left. As to conditions: time 7 day.

Series [13] concerns Plasmodium falciparum. The series can be described thus: Synergistic antimalarial activity against synchronized ring stage Plasmodium falciparum 3D7 infected in human RBC assessed as mean fractional inhibitory concentration at 2:3 ratio of ART to compound incubated for 72 hrs by giemsa staining based flow cytometric analysis. In kind it is functional. (In general: Flow cytometry measures light scatter and fluorescence of single cells or particles in a stream.)

Series [14] is described as follows: Cytotoxicity against human HepG2 cells. In kind it is toxicity, cell-based.
Series [15] has as its system Plasmodium falciparum. The series can be described thus: Binding affinity to recombinant N-terminal 6His tagged Plasmodium falciparum alpha-1 tubulin expressed in Escherichia coli BL21 assessed as thermo-stabilization incubated at 4 to 80 degreeC for 3 mins followed by 5 mins incubation at room temperature by thermal shift assay. As to conditions: time 8.0 min.
Series [16] concerns Plasmodium falciparum. The series is described as follows: Antimalarial activity against chloroquine-resistant Plasmodium falciparum RKL-9 infected in human RBC assessed as reduction of plasmodial growth by SYBR green dye based spectrofluorometric analysis. In kind it is functional, organism-based.
The test system of series [17] is Plasmodium falciparum. The series is described as follows: Antimalarial activity against […] infected in human RBC assessed as inhibition of plasmodial growth at 10 uM by SYBR green dye based spectrofluorometric analysis relative to control. Type of series: functional. As to conditions: 3D7, Erythrocyte.
Series [18] relates to Plasmodium falciparum. The series can be described thus: Synergistic antimalarial activity against synchronized ring stage Plasmodium falciparum 3D7 infected in human RBC assessed as mean fractional inhibitory concentration at 1:4 ratio of ART to compound incubated for 72 hrs by giemsa staining based flow cytometric analysis. In kind it is functional.
Series [19] concerns Plasmodium falciparum. The series can be described thus: Antimalarial activity against chloroquine-sensitive synchronized late stage trophozoite Plasmodium falciparum 3D7 infected in human RBC assessed as inhibition of plasmodial growth by giemsa staining based analysis. Type of series: functional, organism-based. To be noted: 3D7, Erythrocyte.
The subject of series [20] is Plasmodium falciparum. The series is described as follows: Antimalarial activity against chloroquine-resistant synchronized late stage trophozoite Plasmodium falciparum RKL-9 infected in human RBC assessed as inhibition of plasmodial growth by giemsa staining based analysis. In kind it is functional, organism-based. As to conditions: RKL-9, Erythrocyte.

The Kd is a measure of binding affinity in units of concentration. The inhibition is the relative decrease from the control value, in per cent. What is called IC50 is the concentration that inhibits the measured activity by half. As for `CCC(C)[C@H](c1nc2ccccc2n1Cc1cn(-c2ccc(C(F)(F)F)cc2)nn1)N1C(=O)c2ccccc2C1=O` (stereo partly specified), the result in the series with Plasmodium falciparum [1], in the series on Plasmodium berghei [4], in the series with Plasmodium falciparum [7], in the series with Plasmodium falciparum [9] and in the series with Plasmodium falciparum [15] was Active. Moreover, the dissociation constant Kd in series [2] was determined as 26400 nM. The result in the series with Plasmodium falciparum [3] was inactive. Besides, in the series with Plasmodium falciparum [5], the inhibition at 1 µM stood at 45%. Further, the Activity was 4.61 in the series with Plasmodium falciparum [6]; “Non-Toxic” in [8]; “Non-Toxic” with Erythrocyte; 2.1% in the series on Plasmodium berghei [12]; “Dose dependent effect” with Plasmodium falciparum [16]. In addition, the selectivity ratio in series [10] came to 156. Moreover, the MST in the series with Plasmodium berghei [11] is 11.42 days. Besides, the results for the FIC with Plasmodium falciparum [13] and in the series on Plasmodium falciparum [18] were 0.86 and 0.67, respectively. For the same molecule, the IC50 in series [14] is > 100000 nM; in the series on Plasmodium falciparum [19], 640 nM; with Plasmodium falciparum [20] it was 1620 nM. In addition, the inhibition at 10 µM in the series on Plasmodium falciparum [17] turned out to be 68%.
